Here are results for six compounds from ChEMBL document CHEMBL1201862, “PubChem BioAssay data set” (2004).

The source made the active and inactive calls.

A short description of test [1]: Luminescence-based dose response cell-based high throughput screening assay for cytotoxic compounds using the IEC-6 intestinal epithelial cell line. [Related pubchem assays: 1858 (Summary AID.), 1825 (Counterscreen.), 1907 (Confirmation screen.)]. Format: functional. In general terms: Counterscreens check selectivity or assay interference.
Test [2] concerns the target T1, Short transient receptor potential channel 4 (Mus musculus, UniProt Q9QUQ5).
T1 sequence (Q9QUQ5 whole entry): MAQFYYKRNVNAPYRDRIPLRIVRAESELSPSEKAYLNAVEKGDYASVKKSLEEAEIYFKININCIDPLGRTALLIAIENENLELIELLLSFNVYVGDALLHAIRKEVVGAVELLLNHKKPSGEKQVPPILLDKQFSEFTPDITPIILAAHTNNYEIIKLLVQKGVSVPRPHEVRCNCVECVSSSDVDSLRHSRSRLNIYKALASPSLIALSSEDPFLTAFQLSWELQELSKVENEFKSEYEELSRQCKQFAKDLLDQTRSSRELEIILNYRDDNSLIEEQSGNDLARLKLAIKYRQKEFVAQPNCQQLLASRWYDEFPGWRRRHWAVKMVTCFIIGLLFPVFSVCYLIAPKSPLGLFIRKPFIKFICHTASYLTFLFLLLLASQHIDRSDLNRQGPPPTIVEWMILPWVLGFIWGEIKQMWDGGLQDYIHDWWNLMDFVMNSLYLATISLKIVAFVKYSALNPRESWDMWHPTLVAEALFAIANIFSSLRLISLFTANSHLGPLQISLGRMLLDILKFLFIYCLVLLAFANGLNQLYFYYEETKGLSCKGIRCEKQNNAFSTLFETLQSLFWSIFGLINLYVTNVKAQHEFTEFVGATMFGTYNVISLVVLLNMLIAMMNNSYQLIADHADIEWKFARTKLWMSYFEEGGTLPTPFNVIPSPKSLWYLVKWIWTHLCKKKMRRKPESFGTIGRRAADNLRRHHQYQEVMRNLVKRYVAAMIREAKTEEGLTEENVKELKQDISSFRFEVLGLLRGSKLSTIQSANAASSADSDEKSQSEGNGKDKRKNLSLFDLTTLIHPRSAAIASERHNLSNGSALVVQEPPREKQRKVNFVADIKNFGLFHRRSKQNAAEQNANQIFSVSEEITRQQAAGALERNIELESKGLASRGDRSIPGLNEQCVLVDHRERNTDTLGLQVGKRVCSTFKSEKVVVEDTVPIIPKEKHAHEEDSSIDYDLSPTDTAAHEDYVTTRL
The test can be described thus: calcium entry via TRPC4 opening agents – cell-based, HEK293 TRPC4/mu-opioid, Fluo-4 calcium, dose response (AID 434937). Format: functional.

A short description of test [3]: NIH3T3 cell viability loss – ATP luminescence, mouse fibroblasts, counter-screen, dose response (AID 2010).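 Note: cells exposed to compound for about 90 hours before reading.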 Format: functional, cell-based.
Test [4] is described as follows: Trypanosoma cruzi growth suppression in host cells – NIH3T3 host cells, beta-gal luminescence, confirmation (AID 2044).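 Note: intracellular parasites grown in NIH/3T3 mouse fibroblasts as host cells; luminescent beta-galactosidase reporter signal from transgenic T. cruzi replicating inside host cells; inhibitors lower the luminescence signal.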 The test is classed as functional, cell-based.
Test [5] deals with Neuropeptide Y receptor type 1 (Homo sapiens, UniProt P25929). The test can be described thus: IC50 of human NPY-Y1 blockers – cell-based, dose response (AID 1277). Format: functional.
Chain of Neuropeptide Y receptor type 1 (P25929 whole entry): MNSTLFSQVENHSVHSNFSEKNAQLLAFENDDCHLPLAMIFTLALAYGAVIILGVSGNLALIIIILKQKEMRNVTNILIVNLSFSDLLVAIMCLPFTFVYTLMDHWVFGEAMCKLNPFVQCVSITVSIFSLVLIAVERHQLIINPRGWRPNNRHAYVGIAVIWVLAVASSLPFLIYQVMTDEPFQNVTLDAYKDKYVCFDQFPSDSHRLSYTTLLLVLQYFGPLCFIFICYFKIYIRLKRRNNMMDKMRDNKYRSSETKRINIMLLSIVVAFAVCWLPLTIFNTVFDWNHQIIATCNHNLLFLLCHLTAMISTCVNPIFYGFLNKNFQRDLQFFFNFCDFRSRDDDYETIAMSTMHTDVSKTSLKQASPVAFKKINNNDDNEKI
In test [6] the target is T2, Microphthalmia-associated transcription factor (Homo sapiens, UniProt O75030).
T2 sequence (O75030 whole entry): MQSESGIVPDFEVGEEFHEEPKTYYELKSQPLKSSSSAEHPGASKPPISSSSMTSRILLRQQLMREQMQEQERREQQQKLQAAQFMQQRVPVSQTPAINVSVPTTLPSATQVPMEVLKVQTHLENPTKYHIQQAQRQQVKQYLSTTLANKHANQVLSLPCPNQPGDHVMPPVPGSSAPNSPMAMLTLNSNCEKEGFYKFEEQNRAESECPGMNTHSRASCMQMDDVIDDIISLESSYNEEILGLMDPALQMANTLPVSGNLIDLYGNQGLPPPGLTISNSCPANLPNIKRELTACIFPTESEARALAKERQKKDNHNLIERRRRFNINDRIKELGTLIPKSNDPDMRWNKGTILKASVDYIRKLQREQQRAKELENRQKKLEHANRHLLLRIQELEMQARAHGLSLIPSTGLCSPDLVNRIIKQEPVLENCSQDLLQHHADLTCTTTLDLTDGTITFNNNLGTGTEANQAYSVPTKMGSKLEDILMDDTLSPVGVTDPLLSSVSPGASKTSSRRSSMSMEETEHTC
Put plainly: reducers of TRPM1 reporter luminescence, concentration series – cell-based, SK-MEL-5, cherry-picked, set 3, MITF inhibitor project, dose response (AID 493073).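 Note: SK-MEL-5 melanoma cells with luciferase driven by the MITF target TRPM1 promoter.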 The test is classed as functional.

Test [7] is described as follows: Fluorescence-based cell-based high throughput dose response assay for inhibitors of the interaction of nucleotide-binding oligomerization domain containing 2 (NOD2) and the receptor-interacting serine-threonine kinase 2 (RIPK2). The test is classed as functional. The note with it: Homo sapiens.
The nature of test [8]: reduced cellular PGC1a acetyl-lysine signal – cell-based, cherry-picked samples, dose response (AID 720514).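 Note: potency may reflect raised or lowered acetylation signal.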 Format: functional.
Test [9] deals with Sphingosine 1-phosphate receptor 1 (Homo sapiens, UniProt P21453). The test is classed as functional.
Chain of Sphingosine 1-phosphate receptor 1 (P21453 whole entry): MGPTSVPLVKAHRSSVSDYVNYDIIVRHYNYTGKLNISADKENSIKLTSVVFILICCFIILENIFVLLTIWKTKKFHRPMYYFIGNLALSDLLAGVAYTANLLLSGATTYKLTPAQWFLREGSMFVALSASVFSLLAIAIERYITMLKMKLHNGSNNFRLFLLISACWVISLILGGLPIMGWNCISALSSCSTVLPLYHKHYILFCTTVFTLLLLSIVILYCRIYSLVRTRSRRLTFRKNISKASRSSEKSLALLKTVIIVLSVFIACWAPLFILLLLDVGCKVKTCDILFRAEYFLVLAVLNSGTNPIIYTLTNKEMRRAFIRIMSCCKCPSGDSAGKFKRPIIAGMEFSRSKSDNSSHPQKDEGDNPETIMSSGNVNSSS
For test [10], the target named is T3, Sphingosine 1-phosphate receptor 4 (Homo sapiens, UniProt O95977).
T3 sequence (O95977 whole entry): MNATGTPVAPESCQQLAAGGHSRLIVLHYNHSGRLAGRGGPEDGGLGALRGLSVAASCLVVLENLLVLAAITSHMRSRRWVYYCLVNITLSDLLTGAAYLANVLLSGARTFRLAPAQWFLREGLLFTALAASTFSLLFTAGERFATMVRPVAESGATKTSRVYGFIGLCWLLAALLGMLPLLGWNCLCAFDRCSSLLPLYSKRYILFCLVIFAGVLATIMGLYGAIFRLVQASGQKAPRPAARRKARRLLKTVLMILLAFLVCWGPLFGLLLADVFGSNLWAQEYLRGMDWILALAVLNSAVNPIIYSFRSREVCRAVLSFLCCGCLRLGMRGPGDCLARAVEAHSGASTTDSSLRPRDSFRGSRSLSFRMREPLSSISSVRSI
The test can be described thus: Fluorescence dose response cell-based high throughput screening assay for antagonists of the Sphingosine 1-Phosphate Receptor 4 (S1P4). [Related pubchem assays: 1524 (Confirmation in triplicates.), 1510 (Primary screen.)]. Format: functional.

Test [11] is described as follows: Luminescence Cell-Based Dose Confirmation to Identify Activators of 5'UTR Stem-Loop Driven Alpha-Synuclein mRNA Translation in H4 Neuroglioblastoma Cells. [Related pubchem assays: 1829 (Project Summary), 1814 (Primary HTS)]. The test is classed as functional.
Test [12] is described as follows: Luminescence Cell-Based Dose Response to Identify Activators of Luciferase Translation or Activity in H4-C Neuroglioblastoma Cells. [Related pubchem assays: 1829 (Project Summary), 1814 (Primary HTS)]. The test is classed as functional.
Test [13] in a line: Luminescence Cell-Based Dose Response HTS to Identify Activators of Luciferase Translation or Activity in H4 […] Cells. [Related pubchem assays: 1829 (Project Summary), 1814 (Primary HTS)]. Format: functional.
The nature of test [14]: Luminescence Cell-Based Dose Response to Identify Activators of 5'UTR Stem-Loop Driven Prion Protein mRNA Translation in H4-C Neuroglioblastoma Cells. [Related pubchem assays: 1829 (Project Summary), 1814 (Primary HTS)]. Format: functional.
The nature of test [15]: viability of uninfected HEp-2 cells – cell-based, HTS, cytotoxicity control for RSV inhibitor project, dose response (AID 2410). The test is classed as functional. The following applies: human respiratory syncytial virus.
For test [16], the target named is Induced myeloid leukemia cell differentiation protein Mcl-1 (Homo sapiens, UniProt Q07820). The test is classed as functional.
Chain of Induced myeloid leukemia cell differentiation protein Mcl-1 (Q07820 whole entry): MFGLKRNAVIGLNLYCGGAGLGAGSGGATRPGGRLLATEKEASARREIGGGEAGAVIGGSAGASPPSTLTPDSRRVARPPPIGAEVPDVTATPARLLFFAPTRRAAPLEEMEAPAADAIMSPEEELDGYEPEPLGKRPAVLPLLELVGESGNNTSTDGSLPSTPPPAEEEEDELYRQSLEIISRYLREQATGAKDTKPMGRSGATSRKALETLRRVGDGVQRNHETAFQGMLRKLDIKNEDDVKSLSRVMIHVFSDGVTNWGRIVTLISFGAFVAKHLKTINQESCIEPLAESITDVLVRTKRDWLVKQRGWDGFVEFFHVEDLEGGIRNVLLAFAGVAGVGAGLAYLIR
The nature of test [17]: Luminescence Cell-Based Dose Confirmation HTS to Identify Activators of 5'UTR Stem-Loop Driven Alpha-Synuclein mRNA Translation in H4 Neuroglioblastoma Cells. [Related pubchem assays: 1829 (Project Summary), 1814 (Primary HTS)]. Format: functional.
For a further test, the system named is H4. Put plainly: Luminescence Cell-Based Dose Response HTS to Identify Activators of 5'UTR Stem-Loop Driven Prion Protein mRNA Translation in H4 Neuroglioblastoma Cells. [Related pubchem assays: 1829 (Project Summary), 1814 (Primary HTS)]. Format: functional. The following applies: Homo sapiens.
A further test concerns the target Large T antigen (Simian virus 40, UniProt P03070). The test is classed as functional, Betapolyomavirus macacae.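 Note: Confirmatory-stage PubChem screen for compounds that inhibit SV40 T antigen.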

Chain of Large T antigen (P03070 whole entry): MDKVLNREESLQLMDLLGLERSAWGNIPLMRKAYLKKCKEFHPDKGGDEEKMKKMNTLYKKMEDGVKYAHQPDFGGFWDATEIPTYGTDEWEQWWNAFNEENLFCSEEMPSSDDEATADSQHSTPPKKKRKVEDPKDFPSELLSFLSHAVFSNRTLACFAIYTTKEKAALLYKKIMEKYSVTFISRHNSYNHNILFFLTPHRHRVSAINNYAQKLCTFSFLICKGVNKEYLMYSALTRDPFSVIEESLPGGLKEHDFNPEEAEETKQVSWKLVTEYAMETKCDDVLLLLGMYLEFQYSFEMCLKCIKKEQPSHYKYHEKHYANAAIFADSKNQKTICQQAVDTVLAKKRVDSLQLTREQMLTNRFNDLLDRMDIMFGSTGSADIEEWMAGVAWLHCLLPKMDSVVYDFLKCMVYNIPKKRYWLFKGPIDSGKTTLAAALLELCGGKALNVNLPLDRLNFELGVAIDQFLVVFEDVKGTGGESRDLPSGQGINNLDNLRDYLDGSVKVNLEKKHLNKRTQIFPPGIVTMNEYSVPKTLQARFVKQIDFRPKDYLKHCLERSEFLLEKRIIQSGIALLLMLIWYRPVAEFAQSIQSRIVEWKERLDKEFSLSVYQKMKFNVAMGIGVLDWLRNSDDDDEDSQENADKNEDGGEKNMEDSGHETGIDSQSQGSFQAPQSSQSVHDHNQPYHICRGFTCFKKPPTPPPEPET

With `N=C(N)Nc1ccc(NC(=N)N)cc1`, in test [1], the IC50 is 1800 nM (active).

Turning to `Cc1ccc2oc(=O)c3cnn(CC(=O)NC4CCN(Cc5ccccc5)CC4)c3c2c1`, the EC50 was 2110 nM (active) in test [2], > 60000 nM (not active) in test [3], 79 nM (active) in “cells” and < 100 nM (active) in [4].

Consider `CCc1cc(-c2n[nH]cc2-c2ccc3c(c2)OCO3)c(O)cc1O`, for which the IC50 in test [5] is 13300 nM (not active).

Regarding `O=C(Cn1ncc(Cl)c(Cl)c1=O)c1ccc(Cl)cc1`, the AC50 in [6] is 8810 nM (active); in test [8], 3390 nM (active). Moreover, the IC50 in [7] is 1840 nM (active); in test [9], 7280 nM (active); in test [10], 2150 nM (active). Also, the EC50 in [3] is 2410 nM (active); in test [4], 2110 nM (active).

As to `O=C(Nc1nc(-c2ccc3c(c2)OCCO3)cs1)C1CCCC1`, the EC50 in test [11] is 247 nM (active); in [12] it was 270 nM (active); in test [13] it was < 100 nM (inconclusive); in test [14] it was 365 nM (active). In test [15], the CC50 is 21000 nM (active).

Take `Oc1ccc(-c2csc(Nc3ncccn3)n2)cc1O`: the IC50 in [16] was 3520 nM (active); on Large T antigen it was 14000 nM (active). For the same compound, the EC50 in test [17] is 100 nM (active); in [11] it was 670 nM (active); with H4, 125 nM (active); in [12], > 12000 nM (not active); in [13] it was 3450 nM (active); in test [14], 815 nM (active).

As usually defined, the IC50 is the midpoint of a concentration-inhibition curve. In general, EC50 refers to the concentration that produces a half-maximal response. The AC50 is the midpoint of the concentration-response curve, whichever way the signal moves. For orientation: CC50 means the concentration at which the toxic effect on the cells reaches its halfway point.
